Measured values as given in patent publication US11000033B2, “Ketone or oxime compound, and herbicide” (NISSAN CHEMICAL CORPORATION, priority 2014, dated 2021).

How the values were obtained:
Format in all cases: in vivo
Abutilon theophrasti = experiment: Test Example 5: herbicidal effect by foliage application, plastic box (symbol M); settings: 320 g/ha, 3 weeks after application
How it was run: (§1)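 Sowing in sterilized diluvial soil, 14 days' greenhouse growth at 25° C. to 30° C., then uniform small-sprayer foliar application of aqueous emulsion dilution; plants scored three weeks afterwards.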

Stellaria media = experiment: Test Example 5: herbicidal effect by foliage application, plastic box (symbol P); settings: 320 g/ha, 3 weeks after application
How it was run: as §1

Leptochloa chinensis = experiment: Test Example 3: herbicidal effect by foliage application, Wagner pot (symbol D); settings: application herbicide amount 320 g/ha
How it was run: (§2)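 Plants sown in submerged alluvial soil (water depth 0.1–0.5 cm) in a 25–30 °C greenhouse and grown 14 days. An emulsion of the compound diluted in water to a set herbicide amount was sprayed uniformly on foliage. Effect on each plant scored 3 weeks after application.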

Setaria viridis = experiment: Test Example 5: herbicidal effect by foliage application, plastic box (symbol G); settings: 320 g/ha, 3 weeks after application
How it was run: as §1

[1] = tested on: directly sowed rice plant; experiment: Test Example 3: effect on crop by foliage application, Wagner pot (symbol b); settings: application herbicide amount 320 g/ha
How it was run: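 Steps: fill a 1/10000-are Wagner pot with alluvial soil; add water and mix to submerge at 0.1–0.5 cm depth; sow rice plus Echinochloa crus-galli var. crus-galli, Leptochloa chinensis and Cyperus difformis; grow in a 25–30 °C greenhouse.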

Avena fatua = experiment: Test Example 5: herbicidal effect by foliage application, plastic box (symbol I); settings: 320 g/ha, 3 weeks after application
How it was run: as §1

rice plant = experiment: Test Example 5: effect on crop by foliage application, plastic box (symbol b); settings: 320 g/ha, 3 weeks after application
How it was run: (§3)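 Crop and weed seeds sown in spots in sterilized diluvial soil in plastic boxes and covered with about 1.5 cm soil. Plants raised in a greenhouse at 25° C. to 30° C. for foliar application.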

[2] = tested on: Echinochloa crus-galli var. crus-galli; experiment: Test Example 3: herbicidal effect by foliage application, Wagner pot (symbol H); settings: application herbicide amount 320 g/ha
How it was run: as §2

Chenopodium album = experiment: Test Example 5: herbicidal effect by foliage application, plastic box (symbol O); settings: 320 g/ha, 3 weeks after application
How it was run: as §1

Digitaria ciliaris = experiment: Test Example 5: herbicidal effect by foliage application, plastic box (symbol F); settings: 320 g/ha, 3 weeks after application
How it was run: as §1

Amaranthus retroflexus = experiment: Test Example 5: herbicidal effect by foliage application, plastic box (symbol N); settings: 320 g/ha, 3 weeks after application
How it was run: as §1

beet = experiment: Test Example 5: effect on crop by foliage application, plastic box (symbol f); settings: 320 g/ha, 3 weeks after application
How it was run: as §3

Alopecurus myosuroides = experiment: Test Example 5: herbicidal effect by foliage application, plastic box (symbol J); settings: 320 g/ha, 3 weeks after application
How it was run: as §1

Apera spica-venti = experiment: Test Example 5: herbicidal effect by foliage application, plastic box (symbol L); settings: 320 g/ha, 3 weeks after application
How it was run: as §1

Cyperus difformis = experiment: Test Example 3: herbicidal effect by foliage application, Wagner pot (symbol E); settings: application herbicide amount 320 g/ha
How it was run: as §2

[3] = tested on: Echinochloa crus-galli var. crus-galli; experiment: Test Example 5: herbicidal effect by foliage application, plastic box (symbol H); settings: 320 g/ha, 3 weeks after application
How it was run: as §1

wheat = experiment: Test Example 5: effect on crop by foliage application, plastic box (symbol e); settings: 320 g/ha, 3 weeks after application
How it was run: as §3

Veronica persica = experiment: Test Example 5: herbicidal effect by foliage application, plastic box (symbol R); settings: 320 g/ha, 3 weeks after application
How it was run: as §1

Galium spurium = experiment: Test Example 5: herbicidal effect by foliage application, plastic box (symbol Q); settings: 320 g/ha, 3 weeks after application
Source text: Herbicidal Effect Test by Foliage Application
Sterilized diluvial soil was placed in a plastic box having a length of 21 cm, a width of 13 cm, and a depth of 7 cm. Each of the seeds of Digitaria ciliaris, Setaria viridis, Echinochloa crus-galli var. crus-galli, Avena fatua, Alopecurus myosuroides, Lolium multiflorum Lam., Apera spica-venti, Abutilon theophrasti, Amaranthus retroflexus, Chenopodium album, Stellaria media, Galium spurium, Veronica persica, corn, soybean, rice plant, wheat, beet, and rapeseed was sowed in a spot-like manner and was covered with the soil of a thickness of about 1.5 cm. Thereafter, the plants were grown in the greenhouse of 25° C. to 30° C. After the plants were grown for 14 days, the emulsion agent of the compound of the present invention prepared in accordance with Formulation Example 2 was diluted with water so as to be a predetermined herbicide amount and the diluted emulsion agent was uniformly applied to a foliage part with a small-size spray. 3 weeks later from the herbicide application, the effect to each plant was investigated in accordance with the criteria of Test Example 1.

Lolium multiflorum Lam. = experiment: Test Example 5: herbicidal effect by foliage application, plastic box (symbol K); settings: 320 g/ha, 3 weeks after application
How it was run: as §1

soybean = experiment: Test Example 5: effect on crop by foliage application, plastic box (symbol d); settings: 320 g/ha, 3 weeks after application
How it was run: as §3

corn = experiment: Test Example 5: effect on crop by foliage application, plastic box (symbol c); settings: 320 g/ha, 3 weeks after application
How it was run: as §3

rapeseed = experiment: Test Example 5: effect on crop by foliage application, plastic box (symbol g); settings: 320 g/ha, 3 weeks after application
How it was run: as §3

SMILES | M: Abutilon theophrasti, herbicidal effect grade (Abutilon theophrasti) | P: Stellaria media, herbicidal effect grade (Stellaria media) | herbicidal effect on D (Leptochloa chinensis), grade 0-5 (Leptochloa chinensis) | G: Setaria viridis, herbicidal effect grade (Setaria viridis) | effect on crop b (directly sowed rice plant), grade 0-5 [1] | I: Avena fatua, herbicidal effect grade (Avena fatua) | b: directly sowed rice plant, effect on crop grade (rice plant) | herbicidal effect on H (Echinochloa crus-galli var. crus-galli), grade 0-5 [2] | O: Chenopodium album, herbicidal effect grade (Chenopodium album) | F: Digitaria ciliaris, herbicidal effect grade (Digitaria ciliaris) | N: Amaranthus retroflexus, herbicidal effect grade (Amaranthus retroflexus) | f: beet, effect on crop grade (beet) | J: Alopecurus myosuroides, herbicidal effect grade (Alopecurus myosuroides) | L: Apera spica-venti, herbicidal effect grade (Apera spica-venti) | herbicidal effect on E, grade 0-5 (Cyperus difformis) | H: Echinochloa crus-galli var. crus-galli, herbicidal effect grade [3] | e: wheat, effect on crop grade (wheat) | R: Veronica persica, herbicidal effect grade (Veronica persica) | Q: Galium spurium, herbicidal effect grade (Galium spurium) | K: Lolium multiflorum Lam., herbicidal effect grade (Lolium multiflorum Lam.) | other results
CON=C(C)CC1CC(OC(=O)N(C(C)C)C(C)C)=C(c2c(C)cc(C)cc2C)C1=O (stereo not drawn) [1-158] | 0 (Herbicidal ratio of 5% or lower (almost no effect)) | 0 (Herbicidal ratio of 5% or lower (almost no effect)) | 2 (Herbicidal ratio of 20% or higher and lower than 40%) | 0 (Herbicidal ratio of 5% or lower (almost no effect)) | 2 (Herbicidal ratio of 20% or higher and lower than 40%) | 3 (Herbicidal ratio of 40% or higher and lower than 70%) | 1 (Herbicidal ratio of 5% or higher and lower than 20%) | 0 (Herbicidal ratio of 5% or lower (almost no effect)) | 0 (Herbicidal ratio of 5% or lower (almost no effect)) | 0 (Herbicidal ratio of 5% or lower (almost no effect)) | 0 (Herbicidal ratio of 5% or lower (almost no effect)) | 0 (Herbicidal ratio of 5% or lower (almost no effect)) | 1 (Herbicidal ratio of 5% or higher and lower than 20%) | 0 (Herbicidal ratio of 5% or lower (almost no effect)) | 0 (Herbicidal ratio of 5% or lower (almost no effect)) | 1 (Herbicidal ratio of 5% or higher and lower than 20%) | 0 (Herbicidal ratio of 5% or lower (almost no effect)) | 0 (Herbicidal ratio of 5% or lower (almost no effect)) | 0 (Herbicidal ratio of 5% or lower (almost no effect)) | 4 (Herbicidal ratio of 70% or higher and lower than 90%) | d: soybean, effect on crop grade (soybean): 0 (Herbicidal ratio of 5% or lower (almost no effect)); c: corn, effect on crop grade (corn): 0 (Herbicidal ratio of 5% or lower (almost no effect)); g: rapeseed, effect on crop grade (rapeseed): 2 (Herbicidal ratio of 20% or higher and lower than 40%)
CCOC(=O)C(C(=O)C1CCCCC1)C1CC(O)=C(c2c(C)cc(C)cc2C)C1=O (stereo not drawn) [2-029] | 0 (Herbicidal ratio of 5% or lower (almost no effect)) | 0 (Herbicidal ratio of 5% or lower (almost no effect)) | 0 (Herbicidal ratio of 5% or lower (almost no effect)) | 0 (Herbicidal ratio of 5% or lower (almost no effect)) | 4 (Herbicidal ratio of 70% or higher and lower than 90%) | 2 (Herbicidal ratio of 20% or higher and lower than 40%) | 2 (Herbicidal ratio of 20% or higher and lower than 40%) | 0 (Herbicidal ratio of 5% or lower (almost no effect)) | 0 (Herbicidal ratio of 5% or lower (almost no effect)) | 0 (Herbicidal ratio of 5% or lower (almost no effect)) | 0 (Herbicidal ratio of 5% or lower (almost no effect)) | 0 (Herbicidal ratio of 5% or lower (almost no effect)) | 0 (Herbicidal ratio of 5% or lower (almost no effect)) | 0 (Herbicidal ratio of 5% or lower (almost no effect)) | 0 (Herbicidal ratio of 5% or lower (almost no effect)) | 0 (Herbicidal ratio of 5% or lower (almost no effect)) | 0 (Herbicidal ratio of 5% or lower (almost no effect)) | 0 (Herbicidal ratio of 5% or lower (almost no effect)) | 0 (Herbicidal ratio of 5% or lower (almost no effect)) | 1 (Herbicidal ratio of 5% or higher and lower than 20%) | d: soybean, effect on crop grade (soybean): 0 (Herbicidal ratio of 5% or lower (almost no effect)); c: corn, effect on crop grade (corn): 0 (Herbicidal ratio of 5% or lower (almost no effect)); g: rapeseed, effect on crop grade (rapeseed): 0 (Herbicidal ratio of 5% or lower (almost no effect))
CON=C(C)CC1CC(OC)=C(c2c(C)cc(C=Cc3ccccc3)cc2C)C1=O (stereo not drawn) [6-068] |  |  | 2 (Herbicidal ratio of 20% or higher and lower than 40%) |  | 0 (Herbicidal ratio of 5% or lower (almost no effect)) |  |  | 0 (Herbicidal ratio of 5% or lower (almost no effect)) |  |  |  |  |  |  | 0 (Herbicidal ratio of 5% or lower (almost no effect)) |  |  |  |  |  | M: Abutilon theophrasti, herbicidal effect (criteria of Test Example 1) (Abutilon theophrasti): 0 (Herbicidal ratio of 5% or lower (almost no effect)); P: Stellaria media, herbicidal effect (criteria of Test Example 1) (Stellaria media): 2 (Herbicidal ratio of 20% or higher and lower than 40%); G: Setaria viridis, herbicidal effect (criteria of Test Example 1) (Setaria viridis): 3 (Herbicidal ratio of 40% or higher and lower than 70%); I: Avena fatua, herbicidal effect (criteria of Test Example 1) (Avena fatua): 0 (Herbicidal ratio of 5% or lower (almost no effect)); b: directly sowed rice plant, effect on crop (criteria of Test Example 1) (rice plant): 1 (Herbicidal ratio of 5% or higher and lower than 20%); O: Chenopodium album, herbicidal effect (criteria of Test Example 1) (Chenopodium album): 0 (Herbicidal ratio of 5% or lower (almost no effect)); F: Digitaria ciliaris, herbicidal effect (criteria of Test Example 1) (Digitaria ciliaris): 0 (Herbicidal ratio of 5% or lower (almost no effect)); N: Amaranthus retroflexus, herbicidal effect (criteria of Test Example 1) (Amaranthus retroflexus): 0 (Herbicidal ratio of 5% or lower (almost no effect)); f: beet, effect on crop (criteria of Test Example 1) (beet): 0 (Herbicidal ratio of 5% or lower (almost no effect)); J: Alopecurus myosuroides, herbicidal effect (criteria of Test Example 1) (Alopecurus myosuroides): 0 (Herbicidal ratio of 5% or lower (almost no effect)); L: Apera spica-venti, herbicidal effect (criteria of Test Example 1) (Apera spica-venti): 0 (Herbicidal ratio of 5% or lower (almost no effect)); H: Echinochloa crus-galli var. crus-galli, herbicidal effect (criteria of Test Example 1) [3]: 3 (Herbicidal ratio of 40% or higher and lower than 70%); e: wheat, effect on crop (criteria of Test Example 1) (wheat): 0 (Herbicidal ratio of 5% or lower (almost no effect)); R: Veronica persica, herbicidal effect (criteria of Test Example 1) (Veronica persica): 0 (Herbicidal ratio of 5% or lower (almost no effect)); Q: Galium spurium, herbicidal effect (criteria of Test Example 1) (Galium spurium): 0 (Herbicidal ratio of 5% or lower (almost no effect)); K: Lolium multiflorum Lam., herbicidal effect (criteria of Test Example 1) (Lolium multiflorum Lam.): 0 (Herbicidal ratio of 5% or lower (almost no effect)); d: soybean, effect on crop (criteria of Test Example 1) (soybean): 0 (Herbicidal ratio of 5% or lower (almost no effect)); c: corn, effect on crop (criteria of Test Example 1) (corn): 4 (Herbicidal ratio of 70% or higher and lower than 90%); g: rapeseed, effect on crop (criteria of Test Example 1) (rapeseed): 2 (Herbicidal ratio of 20% or higher and lower than 40%)
